5 compounds from EP4596574A1, “GLP-1/GCG/GIP TRIPLE-RECEPTOR AGONIST AND USE THEREOF” (Sunshine Lake Pharma Co., Ltd., priority 2022, dated 2024) can be followed below.

Type in all cases: cell-based
One assay concerns the target T1, GCGR (Homo sapiens, UniProt P47871).
T1 construct: expressed in transfected cells; host or cells: HEK293 (HEK293-GCGR)
Description: In vitro cell activity, cAMP production in HEK293 cells expressing GCGR. The following applies: HEK293-GCGR cells, cAMP; read-out: GCGR (EC50). The method, then: (§1) After they were completely thawed within 1.5 minutes, the cells were added dropwise into a 15 mL centrifuge tube containing 8 mL of warm culture medium in a clean bench. The tubes were centrifuged at 900 rpm for 5 minutes, the supernatant was discarded, and the cells were resuspended in 1 mL of complete culture medium (by pipetting 15 times). 20 µL of the suspension was immediately taken and mixed with an equal volume of trypan blue. 20 µL was taken to count the number of live cells, and the cells were diluted to 4×10^5 cells/mL with complete culture medium. • 4) The 384-well plate was divided into GLP-1R cell, GCGR cell and GIPR cell areas. The cell suspension was added to the wells of the corresponding area at 5 µL per well using a 12-channel variable-channel adjustable dispenser. […] Then, the diluted cAMP-d2 working solution and anti-cAMP-crytate working solution were mixed evenly in a ratio of 1:1, and 10 µL was added to each well of the sample group. The wells were covered with white lids and placed at room temperature in the dark for 1 hour or at 4 °C overnight. • 6) The fluorescence values at 665 nm and 620 nm were detected in a multifunctional microplate reader. In GraphPad Prism 6, the signal ratio and sample concentration were nonlinearly fitted using a four-parameter equation to obtain the EC50 value.

The target in the next assay is T2, GIPR (Homo sapiens, UniProt P48546).
T2 construct: expressed in transfected cells; host or cells: HEK293 (HEK293-GIPR)
T2 sequence (P48546 22-466): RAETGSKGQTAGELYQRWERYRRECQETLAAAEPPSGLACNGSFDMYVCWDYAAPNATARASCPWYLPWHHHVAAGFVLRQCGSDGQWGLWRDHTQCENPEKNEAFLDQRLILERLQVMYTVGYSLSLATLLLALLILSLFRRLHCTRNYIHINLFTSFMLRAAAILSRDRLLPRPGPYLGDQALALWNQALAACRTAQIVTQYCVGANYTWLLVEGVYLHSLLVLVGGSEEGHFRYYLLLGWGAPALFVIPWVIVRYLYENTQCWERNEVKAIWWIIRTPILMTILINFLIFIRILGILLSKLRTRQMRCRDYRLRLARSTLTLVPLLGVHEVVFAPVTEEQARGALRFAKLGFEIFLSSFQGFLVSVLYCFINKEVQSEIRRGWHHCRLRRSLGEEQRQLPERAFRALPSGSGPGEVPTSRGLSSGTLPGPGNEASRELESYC
Description: In vitro cell activity, cAMP production in HEK293 cells expressing GIPR. The following applies: HEK293-GIPR cells, cAMP; read-out: GIPR (EC50). The method, then:
as §1, with “The wells were covered with white lids and placed at room temperature in the dark for 1 hour or at 4 °C overnight. • 6) The fluorescence values at 665 nm and 620 nm were detected in a multifunctional microplate reader.” left out

A further assay concerns the target T3, GLP-1R (Homo sapiens, UniProt P43220).
T3 construct: expressed in transfected cells; host or cells: HEK293 (HEK293-GLP-1R)
Description: In vitro cell activity, cAMP production in HEK293 cells expressing GLP-1R. The settings on record: HEK293-GLP-1R cells, cAMP; read-out: GLP-1R (EC50). The method, then:
as §1

Starred links: 1 amine or outer side, 2 acyl side, 3 side chain; linkers in the order of their positions; H or OH if unused. Non-standard residues stand in square brackets, D forms with d. Residues, ends and D or L forms follow the SMILES beside them. Groups on a side chain read outwards from the residue. *: point of attachment. C20 diacid = O=C(O)CCCCCCCCCCCCCCCCCCC(=O)*; αMePhe(2-F) = C[C@](N)(Cc1ccccc1F)C(=O)O; γGlu = O=C(O)[C@H](CCC(=O)[*:2])N[*:1]; AEEA = NCCOCCOCC(=O)O; Aib = CC(C)(N)C(=O)O

T3 sequence (P43220 24-463, species assumed): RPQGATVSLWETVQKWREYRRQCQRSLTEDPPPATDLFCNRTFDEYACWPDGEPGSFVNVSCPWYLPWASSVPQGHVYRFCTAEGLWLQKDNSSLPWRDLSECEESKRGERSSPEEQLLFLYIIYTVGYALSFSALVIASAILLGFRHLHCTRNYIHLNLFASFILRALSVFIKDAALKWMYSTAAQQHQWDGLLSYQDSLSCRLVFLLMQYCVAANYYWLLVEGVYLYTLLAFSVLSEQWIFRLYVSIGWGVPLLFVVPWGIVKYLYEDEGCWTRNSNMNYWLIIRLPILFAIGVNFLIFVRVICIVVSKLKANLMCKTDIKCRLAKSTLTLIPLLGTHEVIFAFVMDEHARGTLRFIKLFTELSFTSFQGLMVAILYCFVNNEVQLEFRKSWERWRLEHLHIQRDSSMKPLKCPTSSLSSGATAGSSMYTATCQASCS
T1 sequence (P47871 26-477, species assumed): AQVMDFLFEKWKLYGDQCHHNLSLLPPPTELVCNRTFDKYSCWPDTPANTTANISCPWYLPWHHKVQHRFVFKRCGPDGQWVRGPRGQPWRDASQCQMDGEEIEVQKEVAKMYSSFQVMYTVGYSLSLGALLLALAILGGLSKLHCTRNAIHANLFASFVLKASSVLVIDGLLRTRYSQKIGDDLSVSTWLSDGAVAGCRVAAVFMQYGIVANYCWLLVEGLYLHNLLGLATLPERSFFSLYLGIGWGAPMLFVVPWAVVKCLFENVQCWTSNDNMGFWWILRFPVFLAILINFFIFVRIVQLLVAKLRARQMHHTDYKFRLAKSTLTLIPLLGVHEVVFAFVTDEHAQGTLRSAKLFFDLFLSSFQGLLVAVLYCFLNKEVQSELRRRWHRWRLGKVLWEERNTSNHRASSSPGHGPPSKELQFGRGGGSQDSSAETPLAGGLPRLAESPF

In the case of `CC[C@H](C)[C@H](NC(=O)[C@H](Cc1ccccc1)NC(=O)[C@H](CC(=O)O)NC(=O)[C@H](CCCNC(=N)N)NC(=O)[C@H](CCC(N)=O)NC(=O)[C@H](C)NC(=O)[C@H](CCCCNC(=O)COCCOCCNC(=O)CC[C@H](NC(=O)CCCCCCCCCCCCCCCCCCC(=O)O)C(=O)O)NC(=O)[C@H](CCC(=O)O)NC(=O)[C@H](CC(=O)O)NC(=O)[C@H](CC(C)C)NC(=O)[C@H](CC(C)C)NC(=O)[C@@H](NC(=O)[C@H](CO)NC(=O)[C@H](Cc1ccc(O)cc1)NC(=O)[C@H](CC(=O)O)NC(=O)[C@H](CO)NC(=O)[C@@H](NC(=O)[C@](C)(Cc1ccccc1F)NC(=O)[C@@H](NC(=O)CNC(=O)[C@H](CCC(N)=O)NC(=O)C(C)(C)NC(=O)[C@@H](N)Cc1ccc(O)cc1)[C@@H](C)O)[C@@H](C)O)[C@@H](C)CC)C(=O)N[C@@H](CCC(=O)O)C(=O)N[C@@H](Cc1c[nH]c2ccccc12)C(=O)N[C@@H](CC(C)C)C(=O)N[C@@H](CC(C)C)C(=O)N[C@@H](CCC(=O)O)C(=O)NCC(=O)NCC(=O)N1CCC[C@H]1C(=O)N[C@@H](CO)C(=O)N[C@@H](CO)C(=O)NCC(=O)N[C@@H](C)C(=O)N1CCC[C@H]1C(=O)N1CCC[C@H]1C(=O)N1CCC[C@H]1C(=O)N[C@@H](CO)C(=O)O` [HEC-PT64], the EC50 at GCGR stood at 3.57 nM; on GIPR, 0.248 nM; at GLP-1R, 0.6 nM.
Take `CC[C@H](C)[C@H](NC(=O)[C@H](Cc1ccccc1)NC(=O)[C@H](CC(=O)O)NC(=O)[C@H](CCCNC(=N)N)NC(=O)[C@H](CCC(N)=O)NC(=O)[C@H](C)NC(=O)[C@H](CCCCNC(=O)COCCOCCNC(=O)CC[C@H](NC(=O)CCCCCCCCCCCCCCCCCCC(=O)O)C(=O)O)NC(=O)[C@H](CCC(=O)O)NC(=O)[C@H](CC(=O)O)NC(=O)[C@H](CC(C)C)NC(=O)[C@H](CC(C)C)NC(=O)[C@@H](NC(=O)[C@H](CO)NC(=O)[C@H](Cc1ccc(O)cc1)NC(=O)[C@H](CC(=O)O)NC(=O)[C@H](CO)NC(=O)[C@@H](NC(=O)[C@](C)(Cc1ccccc1F)NC(=O)[C@@H](NC(=O)CNC(=O)[C@H](Cc1c[nH]cn1)NC(=O)C(C)(C)NC(=O)[C@@H](N)Cc1ccc(O)cc1)[C@@H](C)O)[C@@H](C)O)[C@@H](C)CC)C(=O)N[C@@H](CCC(=O)O)C(=O)N[C@@H](Cc1c[nH]c2ccccc12)C(=O)N[C@@H](CC(C)C)C(=O)N[C@@H](CC(C)C)C(=O)N[C@@H](C)C(=O)NCC(=O)NCC(=O)N1CCC[C@H]1C(=O)N[C@@H](CO)C(=O)N[C@@H](CO)C(=O)NCC(=O)N[C@@H](C)C(=O)N1CCC[C@H]1C(=O)N1CCC[C@H]1C(=O)N1CCC[C@H]1C(=O)N[C@@H](CO)C(=O)O` [HEC-PT65]: the figures for the 50% effective concentration (EC50) on GCGR, at GIPR and at GLP-1R were 1.36 nM, 0.157 nM and 0.624 nM, respectively.
The like results for `CC[C@H](C)[C@H](NC(=O)[C@H](CCC(=O)O)NC(=O)[C@H](CC(=O)O)NC(=O)[C@H](CC(C)C)NC(=O)[C@H](CC(C)C)NC(=O)[C@@H](NC(=O)[C@H](CO)NC(=O)[C@H](Cc1ccc(O)cc1)NC(=O)[C@H](CC(=O)O)NC(=O)[C@H](CO)NC(=O)[C@@H](NC(=O)[C@](C)(Cc1ccccc1F)NC(=O)[C@@H](NC(=O)CNC(=O)[C@H](Cc1c[nH]cn1)NC(=O)C(C)(C)NC(=O)[C@@H](N)Cc1ccc(O)cc1)[C@@H](C)O)[C@@H](C)O)[C@@H](C)CC)C(=O)N[C@@H](C)C(=O)N[C@@H](CCC(N)=O)C(=O)N[C@@H](CCCCNC(=O)COCCOCCNC(=O)COCCOCCNC(=O)CC[C@H](NC(=O)CCCCCCCCCCCCCCCCCCC(=O)O)C(=O)O)C(=O)N[C@@H](CC(=O)O)C(=O)N[C@@H](Cc1ccccc1)C(=O)N[C@H](C(=O)N[C@@H](CCC(=O)O)C(=O)N[C@@H](Cc1c[nH]c2ccccc12)C(=O)N[C@@H](CC(C)C)C(=O)N[C@@H](CC(C)C)C(=O)N[C@@H](CCC(=O)O)C(=O)NCC(=O)NCC(=O)N1CCC[C@H]1C(=O)N[C@@H](CO)C(=O)N[C@@H](CO)C(=O)NCC(=O)N[C@@H](C)C(=O)N1CCC[C@H]1C(=O)N1CCC[C@H]1C(=O)N1CCC[C@H]1C(=O)N[C@@H](CO)C(=O)O)[C@@H](C)CC` [HEC-PT66] (H-Y[Aib]HGT[αMePhe(2-F)]TSDYSILLDEIAQK([AEEA-AEEA-γGlu-C20 diacid])DFIEWLLEGGPSSGAPPPS-OH) were, in that order, 12.3 nM, 0.213 nM and 7.14 nM.
On the same counts, the results for `CC[C@H](C)[C@H](NC(=O)[C@H](CCC(=O)O)NC(=O)[C@H](CC(=O)O)NC(=O)[C@H](CC(C)C)NC(=O)[C@H](CC(C)C)NC(=O)[C@@H](NC(=O)[C@H](CO)NC(=O)[C@H](Cc1ccc(O)cc1)NC(=O)[C@H](CC(=O)O)NC(=O)[C@H](CO)NC(=O)[C@@H](NC(=O)[C@](C)(Cc1ccccc1F)NC(=O)[C@@H](NC(=O)CNC(=O)[C@H](CCC(N)=O)NC(=O)C(C)(C)NC(=O)[C@@H](N)Cc1c[nH]cn1)[C@@H](C)O)[C@@H](C)O)[C@@H](C)CC)C(=O)N[C@@H](C)C(=O)N[C@@H](CCC(N)=O)C(=O)N[C@@H](CCCCNC(=O)COCCOCCNC(=O)COCCOCCNC(=O)CC[C@H](NC(=O)CCCCCCCCCCCCCCCCCCC(=O)O)C(=O)O)C(=O)N[C@@H](CC(=O)O)C(=O)N[C@@H](Cc1ccccc1)C(=O)N[C@H](C(=O)N[C@@H](CCC(=O)O)C(=O)N[C@@H](Cc1c[nH]c2ccccc12)C(=O)N[C@@H](CC(C)C)C(=O)N[C@@H](CC(C)C)C(=O)N[C@@H](CCC(=O)O)C(=O)NCC(=O)NCC(=O)N1CCC[C@H]1C(=O)N[C@@H](CO)C(=O)N[C@@H](CO)C(=O)NCC(=O)N[C@@H](C)C(=O)N1CCC[C@H]1C(=O)N1CCC[C@H]1C(=O)N1CCC[C@H]1C(=O)N[C@@H](CO)C(=O)O)[C@@H](C)CC` [HEC-PT67] (H-H[Aib]QGT[αMePhe(2-F)]TSDYSILLDEIAQK([AEEA-AEEA-γGlu-C20 diacid])DFIEWLLEGGPSSGAPPPS-OH) are 57 nM, 0.402 nM and 0.679 nM.
On the same counts, the results for `CC[C@H](C)[C@H](NC(=O)[C@H](Cc1ccccc1)NC(=O)[C@H](C)NC(=O)[C@H](CCC(N)=O)NC(=O)[C@H](CCC(N)=O)NC(=O)[C@H](C)NC(=O)[C@H](CCCCNC(=O)COCCOCCNC(=O)CC[C@H](NC(=O)CCCCCCCCCCCCCCCCCCC(=O)O)C(=O)O)NC(=O)[C@H](CCC(=O)O)NC(=O)[C@H](CC(=O)O)NC(=O)[C@H](CC(C)C)NC(=O)[C@H](CC(C)C)NC(=O)[C@@H](NC(=O)[C@H](CO)NC(=O)[C@H](Cc1ccc(O)cc1)NC(=O)[C@H](CC(=O)O)NC(=O)[C@H](CO)NC(=O)[C@@H](NC(=O)[C@](C)(Cc1ccccc1F)NC(=O)[C@@H](NC(=O)CNC(=O)[C@H](CCC(N)=O)NC(=O)C(C)(C)NC(=O)[C@@H](N)Cc1ccc(O)cc1)[C@@H](C)O)[C@@H](C)O)[C@@H](C)CC)C(=O)N[C@@H](CCC(=O)O)C(=O)N[C@@H](Cc1ccc(O)cc1)C(=O)N[C@@H](CC(C)C)C(=O)N[C@@H](CC(C)C)C(=O)N[C@@H](CCC(=O)O)C(=O)NCC(=O)NCC(=O)N1CCC[C@H]1C(=O)N[C@@H](CO)C(=O)N[C@@H](CO)C(=O)NCC(=O)N[C@@H](C)C(=O)N1CCC[C@H]1C(=O)N1CCC[C@H]1C(=O)N1CCC[C@H]1C(=O)N[C@@H](CO)C(=O)O` [HEC-PT68] are 0.748 nM, 0.199 nM and 0.415 nM.
